Results on seven molecules are retold here after PubChem BioAssay (NCI).

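Method: 48-hour compound exposure of cells in 96-well plates, five concentrations, linear interpolation of endpoints. At the GI50, growth is halved. Definition used: TGI = concentration required for complete inhibition of growth.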

What all share (test): NCI-60 cell line screen, 48 h
Test [1] deals with SF-539 CNS.
Test [2] has as its system MCF7 breast.
Test [3] concerns HL-60(TB) leukemia.
The subject of test [4] is MDA-MB-435.
Test [5] concerns HCT-116 colon.
In test [6] the test system is LOX IMVI melanoma.
Test [7] has as its system OVCAR-5 ovarian.
The subject of test [8] is U251 CNS.
Test [9] deals with NCI-H23 lung.
The test system of test [10] is SF-268 CNS.

On to `C=CC1CC12C(=O)C1OC2(C)C2C(=O)c3ccccc3C(=O)C12` (stereo not given), for which the GI50 in [1] was above 82 µM; in test [2] it was 42.9 µM; in test [3], 0.691 µM; in test [4], above 40.1 µM; in [5] it was above 100 µM; in [6] it was 12.7 µM. In addition, the GI50 in test [7] is above 54.7 µM; in test [8], 38.7 µM; in test [9] it was 39.4 µM; in test [10] it was above 54 µM. In addition, the TGI in test [1] is above 100 µM; in test [2], above 76.1 µM; in [3], 2.59 µM; in test [4], above 54.4 µM; in [5] it was above 100 µM; in test [6], 68.7 µM. Further, the TGI in test [7] was above 88.5 µM; in test [8], above 100 µM; in [9] it was above 59.8 µM; in test [10] it was above 92.5 µM.
For `Brc1c[n+](Cc2ccc3ccccc3c2)cn1Cc1ccc2ccccc2c1`, the GI50 in [1] is 1.56 µM; in test [2], 1.59 µM; in test [3], 1.15 µM; in test [4] it was 1.69 µM; in test [5], 1.21 µM; in test [6] it was 1.42 µM. For the same molecule, the GI50 in test [7] was 2.13 µM; in test [8], 1.67 µM; in [9], 1.35 µM; in test [10], 1.47 µM. For the same molecule, the TGI turned out to be 3.04 µM in [1]; 3.39 µM in test [2]; 3.68 µM in test [3]; 3.22 µM in test [4]; 2.49 µM in test [5]; 2.74 µM in test [6]. The TGI in [7] turned out to be 8.71 µM; in test [8], 3.51 µM; in [9], 3.18 µM; in [10] it was 3.02 µM.
With `CN(C(=O)c1ccc(F)cc1C(F)(F)F)C1CCN(c2nnc(-c3ccnn3C)c3ccccc23)CC1`, the GI50 in test [1] is above 100 µM; in [2], 24.2 µM; in test [3] it was 27.3 µM; in test [4], 26.6 µM; in [5] it was 40.8 µM; in test [6], 61.5 µM. Besides, the GI50 was above 100 µM in [7], 59.3 µM in test [8], 29.3 µM in [9] and above 74.5 µM in test [10]. Further, the TGI in test [1] was above 100 µM; in test [2] it was above 100 µM; in test [3] it was above 84.1 µM; in [4], above 100 µM; in test [5] it was above 100 µM; in test [6] it was above 100 µM. Besides, the TGI in [7], in test [8], in test [9] and in test [10] was above 100 µM each time.
For the molecule `COc1cc(-c2c3c(cn2S(=O)(=O)c2ccccc2)-c2nc(N)sc2CC3)cc(OC)c1OC`, the GI50 in [1] is 0.548 µM; in test [2] it was 0.381 µM; in [3], 0.385 µM; in test [4], 0.238 µM; in test [5] it was 0.515 µM; in test [6], 0.987 µM. The GI50 in [7] was 4.25 µM; in [8], 0.591 µM; in test [9], 4.29 µM; in test [10], 4.46 µM. The TGI was 5.07 µM in [1]; 21.4 µM in test [2]; 4.32 µM in test [3]; 0.791 µM in [4]; 21.3 µM in test [5]; above 100 µM in test [6]. In addition, the TGI in [7] was above 100 µM; in test [8], 10.5 µM; in test [9] it was above 100 µM; in test [10] it was above 100 µM.
Consider `COc1ccccc1-c1cc2c3c(nc4ccccc42)C(=O)c2cccnc2-c3n1`, for which the GI50 in [1] is 14.8 µM; in test [2] it was 1.44 µM; in [3] it was above 100 µM; in [4], 12.5 µM; in test [5], 4.89 µM; in test [6], 2.13 µM. Besides, the GI50 is 15 µM in test [7], 3.77 µM in [8], 9.06 µM in test [9] and 17.6 µM in test [10]. In addition, the TGI in test [1] was 35.4 µM; in test [2], 3.95 µM; in test [3], above 100 µM; in test [4], 33.3 µM; in test [5], 14.6 µM; in [6] it was 4.89 µM. Also, the TGI in test [7] is 34 µM; in [8], 11.4 µM; in [9], 25.3 µM; in test [10], 38.9 µM.
`CCCC[C@@H]1NC(=O)[C@H](CCCCN)NC(=O)[C@H](CCCNC(=N)N)NC(=O)[C@H](CC(C)C)NC(=O)[C@@H](NC(=O)[C@H](Cc2cccc(Cl)c2)NC(=O)[C@@H]2CCCN2C(=O)[C@@H](NC(C)=O)C(C)C)CCSSC[C@@H](C(=O)N[C@@H](CCCCN)C(=O)N2CCC[C@H]2C(=O)N2CCC[C@H]2C(=O)N[C@@H](CCC(=O)O)C(N)=O)NC(=O)[C@H](Cc2ccccc2)NC(=O)[C@H](CO)NC(=O)[C@H](C)NC(=O)[C@@H]2CCCN2C1=O`: the GI50 in test [1], in test [2], in test [3], in test [4], in test [5] and in test [6] was above 50 µM each time. Besides, the GI50 in test [7], in test [8], in test [9] and in [10] was above 50 µM throughout. The TGI in test [1], in test [2], in test [3], in [4], in test [5] and in [6] was above 50 µM each time. Also, the TGI in [7], in [8], in test [9] and in test [10] was above 50 µM throughout.
In the case of `COc1cc(OC)c(-c2cc(=O)c3c(OC)c(OC)c(OC)c(OC)c3o2)cc1OC`, the TGI is above 100 µM in test [1]; above 100 µM in test [2]; above 64.6 µM in test [3]; above 100 µM in [4]; above 100 µM in [5]; above 100 µM in test [6]. The TGI in [7], in test [8], in test [9] and in test [10] was above 100 µM each time.
